Assay results: publication PMC3030585, “Functional Magnetic Resonance Imaging Reveals Different Neural Substrates for the Effects of Orexin-1 and Orexin-2 Receptor Antagonists” (PLoS ONE, 2011)

Tests used:
orexin-1 receptor (OX1R) = molecular target: T1, orexin-1 receptor (OX1R) (Rattus norvegicus, UniProt P56718); experiment: antagonism of Orexin-A-induced [3H]inositol phosphates accumulation in RBL cells stably expressing rat OX1R; format: cell-based
T1 construct: gene Hcrtr1
T1 sequence (P56718 1-416): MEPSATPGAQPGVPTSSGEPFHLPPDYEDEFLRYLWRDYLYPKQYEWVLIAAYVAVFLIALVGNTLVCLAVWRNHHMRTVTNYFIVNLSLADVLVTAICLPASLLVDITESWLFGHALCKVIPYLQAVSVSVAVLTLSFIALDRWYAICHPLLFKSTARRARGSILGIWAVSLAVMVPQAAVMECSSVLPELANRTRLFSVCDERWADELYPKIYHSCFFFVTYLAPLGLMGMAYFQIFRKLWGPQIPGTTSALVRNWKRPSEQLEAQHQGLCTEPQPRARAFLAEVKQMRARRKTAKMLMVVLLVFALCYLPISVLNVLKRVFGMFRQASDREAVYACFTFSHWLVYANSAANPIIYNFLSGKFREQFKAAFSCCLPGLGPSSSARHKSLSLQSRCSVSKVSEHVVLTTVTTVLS

orexin-2 receptor (OX2R) = molecular target: T2, orexin-2 receptor (OX2R) (Rattus norvegicus, UniProt P56719); experiment: antagonism of Orexin-A-induced [3H]inositol phosphates accumulation in RBL cells stably expressing rat OX2R (Schild analysis); format: cell-based
T2 construct: gene Hcrtr2
T2 sequence (P56719 1-460): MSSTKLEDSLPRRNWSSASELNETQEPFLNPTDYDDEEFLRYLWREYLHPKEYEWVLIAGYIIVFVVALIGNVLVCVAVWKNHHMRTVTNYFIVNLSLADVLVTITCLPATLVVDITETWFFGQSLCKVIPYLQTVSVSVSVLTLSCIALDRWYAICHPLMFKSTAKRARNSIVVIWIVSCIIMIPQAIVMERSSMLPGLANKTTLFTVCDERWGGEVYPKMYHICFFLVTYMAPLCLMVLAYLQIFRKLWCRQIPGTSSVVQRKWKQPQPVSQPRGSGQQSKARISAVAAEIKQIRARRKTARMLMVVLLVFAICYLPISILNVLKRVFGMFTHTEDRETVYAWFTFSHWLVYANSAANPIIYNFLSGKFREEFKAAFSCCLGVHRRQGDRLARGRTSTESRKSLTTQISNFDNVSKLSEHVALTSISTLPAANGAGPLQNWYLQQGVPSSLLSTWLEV

κ-opioid (KOP) receptor = molecular target: T3, κ-opioid (KOP) receptor (Homo sapiens, UniProt P41145); experiment: CEREP/Bioprint binding assay panel (human isoforms)
T3 construct: gene OPRK1
T3 sequence (P41145 whole entry, canonical isoform): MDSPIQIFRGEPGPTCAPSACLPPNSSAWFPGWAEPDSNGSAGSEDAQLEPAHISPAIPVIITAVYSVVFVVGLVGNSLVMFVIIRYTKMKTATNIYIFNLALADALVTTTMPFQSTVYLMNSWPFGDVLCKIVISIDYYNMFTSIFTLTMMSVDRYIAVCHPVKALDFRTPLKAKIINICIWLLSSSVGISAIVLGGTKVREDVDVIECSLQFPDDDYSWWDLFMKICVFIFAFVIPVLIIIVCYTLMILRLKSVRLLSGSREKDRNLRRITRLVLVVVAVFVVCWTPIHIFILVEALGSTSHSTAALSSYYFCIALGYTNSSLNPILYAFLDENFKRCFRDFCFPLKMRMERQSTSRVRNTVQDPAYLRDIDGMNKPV

Structure (SMILES)	Kb (orexin-1 receptor (OX1R)) [nM]	Kb (orexin-2 receptor (OX2R)) [nM]	Ki (κ-opioid (KOP) receptor) [nM]
CC1(C)OC[C@H](NC(=O)Nc2ccc(Br)cc2Br)[C@H](c2ccccc2)O1 [JNJ10397049]	1260	3.16	
COc1c(F)cccc1C(=O)N1C[C@@H](C)CC[C@H]1CNc1ccc(Br)cn1 [GSK1059865, 5-bromo-N-[(2S,5S)-1-(3-fluoro-2-methoxybenzoyl)-5-methylpiperidin-2-yl]methyl-pyridin-2-amine]	1.58	126	316
